The molecules below were run against phosphorylated active hERK2 enzyme (Homo sapiens (Human), UniProt P28482). Conditions: not given.
phosphorylated active hERK2 enzyme, sequence (P28482 whole entry): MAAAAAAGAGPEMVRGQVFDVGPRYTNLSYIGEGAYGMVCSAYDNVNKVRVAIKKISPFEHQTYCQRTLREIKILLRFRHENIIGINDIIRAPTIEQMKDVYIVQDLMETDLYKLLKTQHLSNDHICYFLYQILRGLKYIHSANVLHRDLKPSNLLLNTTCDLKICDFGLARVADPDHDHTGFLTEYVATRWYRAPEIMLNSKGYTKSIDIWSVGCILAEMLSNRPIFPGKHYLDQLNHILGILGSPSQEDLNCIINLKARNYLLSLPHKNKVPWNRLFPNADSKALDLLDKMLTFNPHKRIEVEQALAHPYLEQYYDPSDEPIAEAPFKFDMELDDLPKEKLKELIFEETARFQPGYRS

Row | Compound | IC50 [nM]
1 | C[C@@H](NC(=O)Nc1cc2cnn(CC3CCCC3)c2c(CO)n1)c1ccccc1 [Example 303, 1-[1-(cyclopentylmethyl)-7-(hydroxymethyl)-1H-pyrazolo[3,4-c]pyridin-5-yl]-3-[(1R)-1-phenylethyl]urea] | 294
2 | C[C@@H](NC(=O)Nc1cc2cnn(CC3CCOCC3)c2c(CO)n1)c1ccccc1 [Example 309, 1-[7-(hydroxymethyl)-1-(tetrahydro-2H-pyran-4-ylmethyl)-1H-pyrazolo[3,4-c]pyridin-5-yl]-3-[(1R)-1-phenylethyl]urea] | 285

Same assay, conditions: read-out: ERK2 IC50; IMAP-FP assay; 0.5 nM hERK2, 30 μM ATP; 10 point titration, 3 μM starting concentration

Row | Compound | IC50 [nM]
3 | C[C@@H](NC(=O)Nc1cc2cnn(C)c2c(CO)n1)c1ccccc1 [Example 298, (R)-1-(7-(Hydroxymethyl)-1-methyl-1H-pyrazolo[3,4-c]pyridin-5-yl)-3-(1-phenylethyl)urea] | 60.4
4 | CCn1ncc2cc(NC(=O)N[C@H](C)c3ccccc3)nc(CO)c21 [Example 299, 1-[1-Ethyl-7-(hydroxymethyl)-1H-pyrazolo[3,4-c]pyridin-5-yl]-3-[(1R)-1-phenylethyl]urea] | 18.1
5 | Cc1cc(-n2ncc3cc(NC(=O)N[C@H](C)c4ccccc4)nc(CO)c32)ccn1 [Example 300, 1-[7-(Hydroxymethyl)-1-(2-methylpyridin-4-yl)-1H-pyrazolo[3,4-c]pyridin-5-yl]-3-[(1R)-1-phenylethyl]urea] | 10.3
6 | COCCCn1ncc2cc(NC(=O)N[C@H](C)c3ccccc3)nc(CO)c21 [Example 301, 1-[7-(hydroxymethyl)-1-(3-methoxypropyl)-1H-pyrazolo[3,4-c]pyridin-5-yl]-3-[(1R)-1-phenylethyl]urea] | 78
7 | CC(C)n1ncc2cc(NC(=O)N[C@H](C)c3ccccc3)nc(CO)c21 [Example 302, 1-[7-(hydroxymethyl)-1-(1-methylethyl)-1H-pyrazolo[3,4-c]pyridin-5-yl]-3-[(1R)-1-phenylethyl]urea] | 62.2
8 | C[C@@H](NC(=O)Nc1cc2cnn(CC3CCC3)c2c(CO)n1)c1ccccc1 [Example 304, 1-[1-(cyclobutylmethyl)-7-(hydroxymethyl)-1H-pyrazolo[3,4-c]pyridin-5-yl]-3-[(1R)-1-phenylethyl]urea] | 230
9 | CCCn1ncc2cc(NC(=O)N[C@H](C)c3ccccc3)nc(CO)c21 [Example 305, 1-[7-(hydroxymethyl)-1-propyl-1H-pyrazolo[3,4-c]pyridin-5-yl]-3-[(1R)-1-phenylethyl]urea] | 43.7
10 | CC(C)Cn1ncc2cc(NC(=O)N[C@H](C)c3ccccc3)nc(CO)c21 [Example 306, 1-[7-(hydroxymethyl)-1-(2-methylpropyl)-1H-pyrazolo[3,4-c]pyridin-5-yl]-3-[(1R)-1-phenylethyl]urea] | 178
11 | C[C@@H](NC(=O)Nc1cc2cnn(C3CCCC3)c2c(CO)n1)c1ccccc1 [Example 307, 1-[1-cyclopentyl-7-(hydroxymethyl)-1H-pyrazolo[3,4-c]pyridin-5-yl]-3-[(1R)-1-phenylethyl]urea] | 125
12 | C[C@@H](NC(=O)Nc1cc2cnn(CC3CC3)c2c(CO)n1)c1ccccc1 [Example 308, 1-[1-(cyclopropylmethyl)-7-(hydroxymethyl)-1H-pyrazolo[3,4-c]pyridin-5-yl]-3-[(1R)-1-phenylethyl]urea] | 79.5
13 | C[C@@H](NC(=O)Nc1cc2cnn(CCO)c2c(CO)n1)c1ccccc1 [Example 310, 1-[1-(2-hydroxyethyl)-7-(hydroxymethyl)-1H-pyrazolo[3,4-c]pyridin-5-yl]-3-[(1R)-1-phenylethyl]urea] | 160
14 | C[C@@H](NC(=O)Nc1cc2cnn(CC3CCOC3)c2c(CO)n1)c1ccccc1 (stereo partly drawn) [Example 311, 1-[7-(hydroxymethyl)-1-(tetra-hydrofuran-3-ylmethyl)-1H-pyrazolo[3,4-c]pyridin-5-yl]-3-[(1R)-1-phenylethyl]urea] | 158
15 | COCCn1ncc2cc(NC(=O)N[C@H](C)c3ccccc3)nc(CO)c21 [Example 312, 1-[7-(hydroxymethyl)-1-(2-methoxyethyl)-1H-pyrazolo[3,4-c]pyridin-5-yl]-3-[(1R)-1-phenylethyl]urea] | 296
16 | C[C@@H](NC(=O)Nc1cc2cnn(C3CCCCC3)c2c(CO)n1)c1ccccc1 [Example 313, 1-[1-cyclohexyl-7-(hydroxymethyl)-1H-pyrazolo[3,4-c]pyridin-5-yl]-3-[(1R)-1-phenylethyl]urea] | 49.1
17 | C[C@@H](NC(=O)Nc1cc2cnn(CC(F)(F)F)c2c(CO)n1)c1ccccc1 [Example 314, 1-[7-(hydroxymethyl)-1-(2,2,2-trifluoroethyl)-1H-pyrazolo[3,4-c]pyridin-5-yl]-3-[(1R)-1-phenylethyl]urea] | 175
18 | C[C@@H](NC(=O)Nc1cc2cnn(CC3COC3)c2c(CO)n1)c1ccccc1 [Example 315, 1-[7-(hydroxymethyl)-1-(oxetan-3-ylmethyl)-1H-pyrazolo[3,4-c]pyridin-5-yl]-3-[(1R)-1-phenylethyl]urea] | 143
19 | C[C@@H](NC(=O)Nc1cc2cnn(C3CCOCC3)c2c(CO)n1)c1ccccc1 [Example 316, 1-[7-(hydroxymethyl)-1-(tetra-hydro-2H-pyran-4-yl)-1H-pyra-- zolo[3,4-c]pyridin-5-yl]-3-[(1R)-1-phenylethyl]urea] | 236
20 | CC(C)(O)[C@@H](NC(=O)Nc1cc2cnn(-c3ncc4c(n3)CNCC4)c2cn1)c1ccc(F)cc1 [Example 317, 1-[(1S)-1-(4-fluorophenyl)-2-hydroxy-2-methylpropyl]-3-[1-(5,6,7,8-tetrahydropyrido[3,4-d]pyrimidin-2-yl)-1H-pyrazolo[3,4-c]pyridin-5-yl]urea] | 327
21 | COCCNCc1nc(NC(=O)N[C@H](C)c2ccccc2)cc2cnn(-c3ccc(F)cc3)c12 [Example 318, 1-[1-(4-Fluorophenyl)-7-{[(2-methoxyethyl)amino]methyl}-1H-pyrazolo[3,4-c]pyridin-5-yl]-3-[(1R)-1-phenylethyl]urea] | 141
22 | C[C@@H](NC(=O)Nc1cc2cnn(-c3ccc(F)cc3)c2c(CN)n1)c1ccccc1 [Example 319, 1-[7-(aminomethyl)-1-(4-fluorophenyl)-1H-pyrazolo[3,4-c]pyridin-5-yl]-3-[(1R)-1-phenylethyl]urea] | 516
23 | C[C@@H](NC(=O)Nc1cc2cnn(-c3ccc(F)cc3)c2c(CNCCN(C)C)n1)c1ccccc1 [Example 320, 1-[7-({[2-(dimethylamino)ethyl]amino}methyl)-1-(4-fluorophenyl)-1H-pyrazolo[3,4-c]pyridin-5-yl]-3-[(1R)-1-phenylethyl]urea] | 1240
24 | COCCNCc1nc(NC(=O)N[C@H](C)c2ccccc2)cc2cnn(-c3ccnc(C)c3)c12 [Example 321, 1-[7-{[(2-methoxyethyl)amino]methyl}-1-(2-methylpyridin-4-yl)-1H-pyrazolo[3,4-c]pyridin-5-yl]-3-[(1R)-1-phenylethyl]urea] | 103
25 | Cc1cc(-n2ncc3cc(NC(=O)N[C@H](C)c4ccccc4)nc(CNCCN(C)C)c32)ccn1 [Example 322, 1-[7-({[2-(dimethylamino)ethyl]amino}methyl)-1-(2-methylpyridin-4-yl)-1H-pyrazolo[3,4-c]pyridin-5-yl]-3-[(1R)-1-phenylethyl]urea] | 86.6
26 | C[C@@H](NC(=O)Nc1cc2cnn(CCC#N)c2c(CO)n1)c1ccccc1 [Example 323, 1-[1-(2-Cyanoethyl)-7-(hydroxymethyl)-1H-pyrazolo[3,4-c]pyridin-5-yl]-3-[(R)-1-phenylethyl]urea] | 110
27 | C=CC(=O)NCc1nc(NC(=O)N[C@H](C)c2ccccc2)cc2cnn(C)c12 [Example 324, N-{[1-Methyl-5-({[(1R)-1-phenylethyl]carbamoyl}amino)-1H-pyrazolo[3,4-c]pyridin-7-yl]methyl}prop-2-enamide] | 432
28 | CC(=O)NCc1nc(NC(=O)N[C@H](C)c2ccccc2)cc2cnn(-c3ccc(F)cc3)c12 [Example 325, N-{[1-(4-fluorophenyl)-5-({[(1R)-1-phenylethyl]carbamoyl}amino)-1H-pyrazolo[3,4-c]pyridin-7-yl]methyl}acetamide] | 289
29 | COC(=O)NCc1nc(NC(=O)N[C@H](C)c2ccccc2)cc2cnn(-c3ccc(F)cc3)c12 [Example 326, Methyl {[1-(4-fluorophenyl)-5-({[(1R)-1-phenylethyl]carbamoyl}amino)-1H-pyrazolo[3,4-c]pyridin-7-yl]methyl}carbamate] | 17.6
30 | CCNC(=O)OCc1nc(NC(=O)N[C@H](C)c2ccccc2)cc2cnn(-c3ccc(F)cc3)c12 [Example 327, [1-(4-Fluorophenyl)-5-({[(1R)-1-phenylethyl]carbamoyl}amino)-1H-pyrazolo[3,4-c]pyridin-7-yl]methyl ethylcarbamate] | 116
31 | C=CC(=O)NC[C@@H](NC(=O)Nc1cc2cnn(C)c2cn1)c1ccccc1 [Example 328, N-[(2S)-2-{[(1-Methyl-1H-pyrazolo[3,4-c]pyridin-5-yl)carbamoyl]amino}-2-phenylethyl]prop-2-enamide] | 796
32 | C=CC(=O)NCCc1nc(NC(=O)N[C@H](C)c2ccccc2)cc2cnn(C)c12 [Example 329, N-{2-[1-Methyl-5-({[(1R)-1-phenylethyl]carbamoyl}amino)-1H-pyrazolo[3,4-c]pyridin-7-yl]ethyl}prop-2-enamide] | 563

— patent US9884048B2, “ERK inhibitors” (Merck Sharp & Dohme Corp., priority 2014, dated 2018)
